According to ChEMBL document CHEMBL3739424, “Synthesis and biological evaluation of 2,3-diarylthiophene analogues of combretastatin A-4” (Medchemcomm, 2015):
Activity calls are given as the source filed them. The calls are words filed in the database; no cut-off is given here.

Legend:
[1] = system: KB; experiment: Anti-proliferative activity against human KB cells after 72 hrs by MTT assay; type: functional, cell-based
[2] = Anti-proliferative activity against human SGC7901 cells after 72 hrs by MTT assay; type: functional, cell-based; details: SGC-7901, 72 h
[3] = Anti-proliferative activity against human HT1080 cells after 72 hrs by MTT assay; type: functional, cell-based; details: HT-1080, 72 h
[4] = system: SGC-7901; experiment: Induction of microtubule network disruption in human SGC7901 cells at 0.4 uM after 24 hrs using DAPI immunofluorescence staining; type: cell-based
[5] = molecular target: T1, Tubulin (Homo sapiens) (UniProt P68371+Q9H4B7+P0DPH7+P68366+Q13509+Q71U36+P04350+Q3ZCM7+P07437+P68363+Q9BQE3+Q6PEY2+Q13885+Q9BVA1+Q9BUF5); experiment: Inhibition of tubulin (unknown origin) polymerization at 5 uM pre-incubated for 1 min measured for 1 min interval for 90 mins by fluorescence based assay; type: protein-complex assay
[6] = molecular target: T1, Tubulin (Homo sapiens); experiment: Inhibition of tubulin (unknown origin) polymerization at 2.5 uM pre-incubated for 1 min measured for 1 min interval for 90 mins by fluorescence based assay; type: protein-complex assay
[7] = molecular target: T1, Tubulin (Homo sapiens); experiment: Inhibition of tubulin (unknown origin) polymerization at 15 uM pre-incubated for 1 min measured for 1 min interval for 90 mins by fluorescence based assay; type: protein-complex assay
[8] = molecular target: Tubulin; experiment: (§1) Inhibition of tubulin (unknown origin) polymerization pre-incubated for 1 min measured for 1 min interval for 90 mins by fluorescence based assay; type: protein-complex assay, Homo sapiens
[9] = molecular target: T1, Tubulin (Homo sapiens); experiment: as §1; type: protein-complex assay
[10] = molecular target: T1, Tubulin (Homo sapiens); experiment: Inhibition of tubulin (unknown origin) polymerization at 10 uM pre-incubated for 1 min measured for 1 min interval for 90 mins by fluorescence based assay; type: protein-complex assay
[11] = molecular target: T1, Tubulin (Homo sapiens); experiment: Inhibition of tubulin (unknown origin) polymerization at 4 uM pre-incubated for 1 min measured for 1 min interval for 90 mins by fluorescence based assay; type: protein-complex assay
[12] = molecular target: T1, Tubulin (Homo sapiens); experiment: Inhibition of tubulin (unknown origin) polymerization at 2 uM pre-incubated for 1 min measured for 1 min interval for 90 mins by fluorescence based assay; type: protein-complex assay
[13] = molecular target: T1, Tubulin (Homo sapiens); experiment: Inhibition of tubulin (unknown origin) polymerization at 1 uM pre-incubated for 1 min measured for 1 min interval for 90 mins by fluorescence based assay; type: protein-complex assay

Row | IC50 [1] | Compound | IC50 [2] | IC50 [3] | also measured
1 | 5.64 µM | COc1cc(-c2cc(C(=O)O)sc2-c2ccc3ccccc3c2)cc(OC)c1OC | 0.38 µM | 13.4 µM | –
2 | 8.65 µM | COc1ccc(-c2cc(C(=O)O)sc2-c2cc(OC)c(OC)c(OC)c2)cc1 | 4.22 µM | 5.81 µM | –
3 | 35.9 µM | COc1ccc(-c2sc(C(=O)O)cc2-c2cc(OC)c(OC)c(OC)c2)cc1[N+](=O)[O-] | 23.3 µM | 37.2 µM | –
4 | > 100 µM | CCOC(=O)c1cc(-c2ccc(OC)c(OCc3ccccc3)c2)c(-c2cc(OC)c(OC)c(OC)c2)s1 | > 100 µM | > 100 µM | –
5 | 32.3 µM | COc1cc(-c2cc(C(=O)O)sc2-c2cccc(Br)c2)cc(OC)c1OC | 93.4 µM | > 100 µM | –
6 | 21.8 µM | COc1ccc(-c2cc(C(=O)O)sc2-c2cc(OC)c(OC)c(OC)c2)cc1O | 17.5 µM | 11.4 µM | –
7 | 3.66 µM | COc1cc(-c2ccsc2-c2ccc3ccccc3c2)cc(OC)c1OC | 5.89 µM | 5.43 µM | –
8 | 15.8 µM | CCOC(=O)c1cc(-c2cc(OC)c(OC)c(OC)c2)c(-c2ccc(OC)c([N+](=O)[O-])c2)s1 | 18.1 µM | 12.7 µM | –
9 | > 100 µM | CCOC(=O)c1cc(-c2ccc(OC)c(O)c2)c(-c2cc(OC)c(OC)c(OC)c2)s1 | 20 µM | 82.5 µM | –
10 | > 100 µM | COc1ccc(-c2ccsc2-c2cc(OC)c(OC)c(OC)c2)cc1OCc1ccccc1 | > 100 µM | > 100 µM | –
11 | 7.4 µM | COc1ccc(-c2ccsc2-c2cc(OC)c(OC)c(OC)c2)cc1 | 2.74 µM | 3.62 µM | –
12 | > 100 µM | COc1ccc(-c2sccc2-c2cc(OC)c(OC)c(OC)c2)cc1OCc1ccccc1 | > 100 µM | > 100 µM | –
13 | 6.27 µM | COc1ccc(-c2sccc2-c2cc(OC)c(OC)c(OC)c2)cc1O | 0.58 µM | 1.94 µM | inhibition [5]: 20%; inhibition [6]: 7.4%; inhibition [7]: 72.3%; IC50 [8]: 9.76 µM; inhibition [9]: Dose-dependent effect; inhibition [10]: 48%
14 | > 100 µM | CCOC(=O)c1cc(-c2cc(OC)c(OC)c(OC)c2)c(-c2cccc(Br)c2)s1 | > 100 µM | > 100 µM | –
15 | 24 µM | CCOC(=O)c1cc(-c2ccc(OC)c([N+](=O)[O-])c2)c(-c2cc(OC)c(OC)c(OC)c2)s1 | 19.4 µM | 26.1 µM | –
16 | 13.2 µM | CCOC(=O)c1cc(-c2cc(OC)c(OC)c(OC)c2)c(-c2ccc(OC)cc2)s1 | 9.76 µM | 8.37 µM | –
17 | 1.53 µM | COc1ccc(-c2ccsc2-c2cc(OC)c(OC)c(OC)c2)cc1O | 0.52 µM | 2.12 µM | inhibition [11]: 39.3%; Activity [4]: Active; IC50 [8]: 5.01 µM; inhibition [9]: Dose-dependent effect; inhibition [12]: 23.3%; inhibition [13]: 10%; inhibition [10]: 87.5%
18 | 10.6 µM | COc1ccc(-c2sccc2-c2cc(OC)c(OC)c(OC)c2)cc1[N+](=O)[O-] | 3.31 µM | 2.1 µM | –
19 | > 100 µM | COc1ccc(-c2cc(C(=O)O)sc2-c2cc(OC)c(OC)c(OC)c2)cc1OCc1ccccc1 | > 100 µM | > 100 µM | –
20 | 8.88 µM | COc1ccc(-c2sccc2-c2cc(OC)c(OC)c(OC)c2)cc1 | 5.47 µM | 4.59 µM | –
21 | 11.2 µM | COc1ccc(-c2sc(C(=O)O)cc2-c2cc(OC)c(OC)c(OC)c2)cc1O | 6.1 µM | 7.51 µM | –
22 | > 100 µM | COc1cc(-c2ccsc2-c2cccc(Br)c2)cc(OC)c1OC | 46.1 µM | > 100 µM | –
23 | 10.4 µM | COc1ccc(-c2sc(C(=O)O)cc2-c2cc(OC)c(OC)c(OC)c2)cc1 | 7.8 µM | 6.77 µM | –
24 | 21 µM | COc1ccc(-c2ccsc2-c2cc(OC)c(OC)c(OC)c2)cc1[N+](=O)[O-] | 10.2 µM | 8.04 µM | –
25 | 1.25 µM | CCOC(=O)c1cc(-c2cc(OC)c(OC)c(OC)c2)c(-c2ccc(OC)c(O)c2)s1 | 1.58 µM | 3.22 µM | –
26 | 5.89 µM | CCOC(=O)c1cc(-c2cc(OC)c(OC)c(OC)c2)c(-c2ccc3ccccc3c2)s1 | 4.34 µM | 1.15 µM | –
27 | 43.7 µM | COc1ccc(-c2cc(C(=O)O)sc2-c2cc(OC)c(OC)c(OC)c2)cc1[N+](=O)[O-] | 21.6 µM | 38.1 µM | –
28 | > 100 µM | CCOC(=O)c1cc(-c2cc(OC)c(OC)c(OC)c2)c(-c2ccc(OC)c(OCc3ccccc3)c2)s1 | > 100 µM | > 100 µM | –
29 | > 100 µM | COc1ccc(-c2sc(C(=O)O)cc2-c2cc(OC)c(OC)c(OC)c2)cc1OCc1ccccc1 | > 100 µM | > 100 µM | –
30 | 10.2 µM | CCOC(=O)c1cc(-c2ccc(OC)cc2)c(-c2cc(OC)c(OC)c(OC)c2)s1 | 6.82 µM | 7.63 µM | –

Row | Compound | IC50 [1] | IC50 [2] | IC50 [3] | also measured
31 | COc1ccc(/C=C\c2cc(OC)c(OC)c(OC)c2)cc1O [COMBRETASTATIN A4] | 0.016 µM | 0.024 µM | 0.011 µM | Activity [4]: Active
